Values after ≈ are worked out from the molar mass of the structure shown. Where two headings read alike, the source gives them in different places.
What was measured:
[1] = solubility of (+), (−) and racemic forms of tenatoprazole in water; type: physicochemical; conditions: for solubility in water relative to the racemic form: versus racemic form
[2] = chiral pharmacokinetic study, plasma analysis after chiral separation in genotyped subjects
Description: In parallel, a chiral pharmacokinetic study was conducted to assess the preponderance of the pharmacokinetic characteristics of the (−) isomer in the pharmacokinetics of racemic tenatoprazole.
These subjects have a very weak metabolic activity concerning CYP2C19, which is responsible for the metabolism of tenatoprazole. […] These subjects are qualified as slow metabolisers.

[3] = versus other proton pump inhibitors such as omeprazole or lansoprazole; cited from earlier work
clinical = conditions: human, plasma

COc1ccc2[nH]c([S+]([O-])Cc3ncc(C)c(OC)c3C)nc2n1 (single isomer, unassigned; (+)) [(+) form]
Solubility (water) [1]: 93.0 µg/mL (≈ 268 µM)
solubility in water relative to the racemic form [1]: ~3 times
plasma level of the isomer compared with the other isomer ([2]; slow metabolisers, CYP2C19*2/*2 genotype, plasma after chiral separation): highly significant increase

COc1ccc2[nH]c([S+]([O-])Cc3ncc(C)c(OC)c3C)nc2n1 (single isomer, unassigned; (-)) [(−) enantiomer]
Solubility (water) ([1]; listed as (−) form): 74.4 µg/mL (≈ 215 µM)
solubility in water relative to the racemic form [1]: over 2 times
plasma concentration of the isomer compared with the other isomer ([2]; rapid metabolisers, CYP2C19*1/*1 genotype): higher concentration

COc1ccc2[nH]c([S+]([O-])Cc3ncc(C)c(OC)c3C)nc2n1 (racemic) [(±)racemic form, (+)-5-methoxy-2-{[(4-methoxy-3,5-dimethyl-2-pyridyl)methyl]sulfinyl}imidazo-[4,5-b]pyridine]
solubility [1]: 34.6 µg/mL (≈ 99.9 µM)
plasma half-life relative to other proton pump inhibitors [3]: about seven
half-life (clinical; 20 mg): ~7 h
half-life (clinical; 80 mg): ~9 h

— patent publication US8207190B2, “Enantiomer of tenatoprazole and the use thereof in therapy” (Mitsubishi Tanabe Pharma Corporation, priority 2003, dated 2012)
